The source of these data is patent US4897391A, “Tricyclic anti-allergy, antiinflammatory and anti-hyperproliferative compounds” (Schering Corporation, priority 1988, dated 1990).

For assay [1], the system named is Reversed Passive Arthus Reaction (paw swelling). Nature of the assay: Reversed Passive Arthus Reaction (RPAR) Assay. It is filed as in vivo, Male Lewis inbred albino rats. The following applies: 50 mg/kg p.o.; rat. From the text: Male Lewis inbred albino rats weighing 180-220 grams obtained from Charles River Breeding Laboratories are used in these experiments. House the rats 3 animals/cage and allow food and water ad libitum. Number the animals 1 to 3 in each cage and color mark them for identification purposes.
Prepare all reagents and drugs just prior to the study. Without shaking, solubilize crystallized and lyophilized bovine serum albumin (BSA), obtained from Sigma Chemical Company, in cold sterile pyrogen-free saline (10 mg/ml PFS). Suspend lyophilized anti-bovine serum albumin (IgG Fraction), obtained from Cappel Laboratories, in sterile distilled water and dilute with cold pyrogen-free saline (PFS) just prior to use. The final concentration of anti-bovine serum albumin will be 0.5 mg/ml of PFS. Both BSA and anti-BSA solutions should be iced during use. Suspend or solubilize drugs in an aqueous solution of methyl cellulose (MC) with a homogenizer just prior to administration.
Dose groups of animals (6/group) with drug in methyl cellulose (MC) by gastric lavage one hour prior to sensitization with BSA. Give controls MC alone and include drug-standard in each assay for verification purposes. Prepare drugs so as to provide a dose for a 200 gram animal which is equivalent to the mg/kg dose for the experiment. Thus each rat receives an oral dose in a volume of approximately 2.0 ml. […]

Assay [2] has as its system Peptidoleukotriene Release in Guinea Pig Lung. Nature of the assay: Peptidoleukotriene Release Inhibition in Lung Assay. It is filed as cell-based. The following applies: Cavia porcellus; final concentration of 50 μm (so in the source); ovalbumin challenge, sensitized guinea pig lung. An excerpt: The anti-allergy method of this invention is identified by tests that measure inhibition of leukotriene release in sensitized guinea pigs by compounds of the invention. This procedure is as follows.
First, kill sensitized guinea pigs by a blow to the head, remove the lungs and clean them of visible connective tissue, trachea and large blood vessels. Slice the lungs from individual animals into fragments approximately 1 mm in thickness using a McIlwain tissue chopper and wash them with oxygenated Tyrode's buffer. Transfer weighed aliquots (approximately 400 mg wet weight) of lung into vials containing 2 ml of fresh Tyrode's solution (containing 10 mM cysteine) and incubate in the presence or absence of test compound for 12 minutes at 37° C., challenge the tissues with 20 μg ovalbumin/ml (final concentration) and incubate for 15 minutes. To measure leukotriene release, extract an aliquot of supernatant fluid with 4 volumes of 100% ethanol. After removal of the precipitated protein, dry the clear fluid under a stream of N2 gas. Measure the leukotriene content by a radioimmunoassay using [^3 H]LTC4 (leukotriene C4) and antiserum obtained from New England Nuclear. […] Calculate percent inhibition of leukotriene release by comparing for each lung the release in the presence of the test compound to that in the absence of test compound.

A further assay addresses T1, 5-lipoxygenase (Mus musculus, UniProt P48999).
T1 construct: Preincubate MC-9 cells (0.39 ml at 7.5×10^6 cells/ml) without or with test compound; endogenous in cells; host or cells: MC-9 murine mast cell clone (interleukin-3-dependent)
T1 sequence (P48999 1-674): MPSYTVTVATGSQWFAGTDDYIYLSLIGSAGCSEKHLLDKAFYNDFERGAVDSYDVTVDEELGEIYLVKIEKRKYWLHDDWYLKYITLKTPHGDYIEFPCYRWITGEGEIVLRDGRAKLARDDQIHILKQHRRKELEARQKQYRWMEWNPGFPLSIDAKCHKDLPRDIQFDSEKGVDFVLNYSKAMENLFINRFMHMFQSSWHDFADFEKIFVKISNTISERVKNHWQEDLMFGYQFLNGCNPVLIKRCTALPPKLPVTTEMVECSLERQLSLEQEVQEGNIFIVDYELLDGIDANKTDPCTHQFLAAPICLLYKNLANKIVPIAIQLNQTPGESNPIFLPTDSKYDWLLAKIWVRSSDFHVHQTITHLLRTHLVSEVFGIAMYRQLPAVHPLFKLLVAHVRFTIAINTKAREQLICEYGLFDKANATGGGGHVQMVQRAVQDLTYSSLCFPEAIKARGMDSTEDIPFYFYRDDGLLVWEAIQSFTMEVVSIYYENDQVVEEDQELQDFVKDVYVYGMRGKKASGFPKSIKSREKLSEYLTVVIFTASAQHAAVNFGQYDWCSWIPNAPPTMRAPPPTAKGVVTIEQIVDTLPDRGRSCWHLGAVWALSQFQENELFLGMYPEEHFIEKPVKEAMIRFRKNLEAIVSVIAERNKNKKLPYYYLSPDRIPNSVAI
Description: 5-Lipoxygenase Assay (MC-9 mast cells, 5-HETE and LTC4 production). It is filed as cell-based, murine. The following applies: MC9, 50 μM dose; MC-9 cells; read-out: % Inhibition 5-HETE. Here is the method:
Preincubate MC-9 cells (0.39 ml at 7.5×10^6 cells/ml) without or with test compound dissolved in dimethylsulfoxide (DMSO) vehicle (to a final volume 1 μl) for 4 minutes then incubate for 5 minutes with [^14 C]arachidonic acid (Amersham, 59 Ci/mole) at a 9 μM final concentration, and A23187 (Calbiochem) at a 1 μM final concentration in 10 μl of water:ethanol (9:1). Stop the reaction by addition of methanol (0.4 ml), and remove cellular debris by centrifugation. Run aliquots (250 μl) of the incubations on a Waters two-pump HPLC system fitted with a Waters radial compression column (C18, 10 micron, 8×100 mm, micro-Bondapak) and C18 "Guard Pak". Initially elute the column at 3 ml/min with water:methanol:acetic acid (67:33:0.08) containing 1 mM EDTA adjusted to pH 6.0 with ammonium hydroxide (Pump A). At 4 minutes, establish a linear gradient to reach 100% methanol (Pump B) at 9 minutes. Between 13 and 14 minutes, exchange for the initial eluting solvent and by 19 minutes the column will be reequilibrated for the next sample. Analyze the effluent by a continuous flow radioactivity monitor (model ROMONA-D) interfaced with a Hewlett Packard Lab Automation System for quantitation of radioactive products. […] Doses in table 2 are 50 μM unless otherwise noted.

As a reminder, the inhibition is the drop in the measured response relative to a control, in per cent. Consider `COc1cc(OC)c2c(C)c3n(c(=O)c2c1)CCCC3` [Compound E, 8,10-bis(methoxy)-1,2,3,4-tetrahydro-11-methyl-6H-benzo[b]quinolizin-6-one], for which the “inhibition of paw swelling” value in assay [1] was determined as 59%. Also, the inhibition at 50 µM in assay [2] amounted to 33%; on 5-lipoxygenase it was 8%.
